Test results: patent US11370781B2, “Combination therapy for treating cancer” (Epizyme, Inc., priority 2012, dated 2022)
Entries after “also recorded” stand apart in the source; their conditions may differ. Read-outs that look alike come from different tables or passages of the source.

Experiments:
[1] = tested on: Toledo cells; test: Anti-proliferative combination matrix, Cell Titer-Glo, Toledo; details: Toledo (WT EZH2); for combination benefit: drug combined with Compound 44, 6 days Compound 44 then 5 days combination
Protocol: (§6) The WSU-DLCL2 and SU-DHL-10 contain the Y641 EZH2 mutation, and the Toledo cell line contains WT EZH2.
(§7) Increasing doses of drugs were then added to the plates. […] After incubation for an additional 3 days cell viability of WSU-DLCL2 or SU-DHL-10 was measured using Promega Cell Titer-Glo reagent followed by luminescence detection. After 5 days viability of Toledo cells was measured using Promega Cell Titer-Glo reagent followed by luminescence detection.
(§8) First, raw luminescence values were converted to percent inhibition or fraction affected (Fa) calculated using controls for maximum inhibition and DMSO treated cells for minimum inhibition control located on each plate. Percent inhibition values for each constant ratio of compound combinations were entered into Calcusyn to determine the combination index values.

[2] = tested on: WSU-DLCL2 cells; test: Anti-proliferative combination matrix, Cell Titer-Glo, WSU-DLCL2; details: for synergy characterization (Chou-Talalay): drug combined with Compound 44; for enhancement of Compound 44 potency (fold IC50 shift): drug combined with Compound 44, top dose of drug, 4 days Compound 44 then 3 days combination
Protocol: as §6, §7, §8

[3] = tested on: SU-DHL-10 cells; test: Anti-proliferative combination matrix, Cell Titer-Glo, SU-DHL-10; details: for synergy characterization (Chou-Talalay): drug combined with Compound 44; for enhancement of Compound 44 potency (fold IC50 shift): drug combined with Compound 44, top dose of drug, 4 days Compound 44 then 3 days combination
Protocol: as §6, §7, §8

[4] = tested on: WSU-DLCL2 human lymphoma cells; test: Cell viability of WSU-DLCL2 cells, Guava ViaCount and flow cytometry; assay type: cell-based; details: for cell viability, combination with Compound 44: WSU-DLCL2
Protocol: The dosage schedule is depicted in FIG. 1A. […] After 4 days, cell viability was determined using Millipore Guava ViaCount Reagent and flow cytometry analysis.
Cell viability was determined by staining with Millipore Guava ViaCount Reagent and then analyzed by flow cytometry.
(§1) Cell viability was determined 4 days later using Millipore Guava ViaCount reagent and flow cytometry analysis. Percentage of cell viability was normalized to percentage of the DMSO-treated sample.

[5] = tested on: RL cells; test: Cell viability of RL cells, Guava ViaCount and flow cytometry; assay type: cell-based, human; details: RL cells (EZH2 Y641N); for cell viability: single agent
Protocol: as §1

[6] = tested on: OCI-LY19 cell line; test: Cell viability of OCI-LY19 cells, Guava ViaCount and flow cytometry; assay type: cell-based, human; details: OCI-LY19 (wild-type EZH2); for cell viability: single agent
Protocol: as §1

[7] = tested on: SUDHL6 human lymphoma cells; test: Efficacy study in SUDHL6 xenograft model; assay type: in vivo, athymic nude mice; details: Compound 44 alone over the 28 day treatment
Protocol: (§2) The animals were fed ad libitum water (reverse osmosis 1 ppm Cl) and NIH 31 Modified and Irradiated Lab Diet® consisting of 18.0% crude protein, 5.0% crude fat, and 5.0% crude fiber. The mice were housed on irradiated Enrich-o'cobs™ bedding in static microisolators on a 12-hour light cycle at 20-22° C. (68-72° F.) and 40-60% humidity. All procedures comply with the recommendations of the Guide for Care and Use of Laboratory Animals with respect to restraint, husbandry, surgical procedures, feed and fluid regulation, and veterinary care.
(§3) Human lymphoma cell lines were harvested during mid-log phase growth, and resuspended in PBS with 50% Matrigel™ (BD Biosciences). Each mouse received 1×10^7 cells (0.2 mL cell suspension) subcutaneously in the right flank. Tumors were calipered in two dimensions to monitor growth as the mean volume approached the desired 80-120 mm^3 range. Tumor size, in mm^3, was calculated from: […]
(§4) Mice were treated at compound doses ranging from 75-600 mg/kg and at TID (3 times a day every 8 h), BID (twice a day every 12 h) or QD (once a day) schedules for various amount of days by oral gavage or injections via the intravenous, intraperitoneal or subcutaneous routes. Each dose was delivered in a volume of 0.2 mL/20 g mouse (10 mL/kg), and adjusted for the last recorded weight of individual animals. […]

[8] = tested on: WSU-DLCL2 human lymphoma cells; test: Efficacy study in WSU-DLCL2 xenograft model; assay type: in vivo; details: 28 days
Protocol: as §2, §3
(§5) Compounds of Formula (IIa) were stored at room temperature and protected from light. On each treatment day, a fresh compound formulations were prepared by suspending the powders in 0.5% sodium carboxymethylcellulose (NaCMC) and 0.1% Tween® 80 in deionized water. […] Formulations were stored away from light at 4° C. prior to administration.
Several chemotherapeutica were used in parallel to Epizyme compounds. Cyclophosphamide (Baxter, Lot #016591), was reconstituted to 20 mg/mL with sterile saline and stored at 4° C. A fresh dosing solution was prepared for each dose by dilution with saline. Doxorubicin (Doxorubicin Meiji®, Meiji Pharmaceutical Co. Ltd., 1 mg/mL) was stored at 4° C. and diluted with saline on each treatment day. Vincristine (Hospira, Inc., 1 mg/mL) was diluted with saline on each treatment day. Prednisone (Boehringer Ingelheim GmbH, 1 mg/mL) was diluted with PBS at the beginning of each 5-day dosing cycle.
Mice were treated at compound doses ranging from 75-600 mg/kg and at TID (3 times a day every 8 h), BID (twice a day every 12 h) or QD (once a day) schedules for various amount of days by oral gavage or injections via the intravenous, intraperitoneal or subcutaneous routes. Each dose was delivered in a volume of 0.2 mL/20 g mouse (10 mL/kg), and adjusted for the last recorded weight of individual animals. The maximal treatment length was 28 days.
Treatment efficacy was determined on the last treatment day. MTV(n), the median tumor volume for the number of animals, n, evaluable on the last day, was determined for each group. Percent tumor growth inhibition (% TGI) can be defined several ways. First, the difference between the MTV(n) of the designated control group and the MTV(n) of the drug-treated group is expressed as a percentage of the MTV(n) of the control group: […]
Another way of calculating % TGI is taking the change of the tumor size from day 1 to day n into account with n being the last treatment day.
SCID mice were subcutaneously injected with 1×10^7 WSU-DLCL2 human lymphoma cells. […] Tumor volume was measured twice a week until the endpoint of 28 days.

[9] = tested on: H3K27me3; test: Histone methylation status in WSU-DLCL2 xenograft tumors, Western blot and ELISA; assay type: in vivo, SCID mice; details: after 28 days of treatment
Protocol: Histones were extracted from tumor samples as described above. […] The plates were sealed and incubated overnight at 4° C. The following day, plates were washed 3× with 300 ul/well PBST (PBS+0.05% Tween 20; 10×PBST, KPL #51-14-02) on a Bio Tek plate washer. Plates were blocked with 300 ul/well of diluent (PBS+2% BSA+0.05% Tween 20), incubated at RT for 2 hours, and washed 3× with PBST. All antibodies were diluted in diluent. […] Plates were washed 4× with PBST. For detection, 100 ul/well of TMB substrate (BioFx Laboratories, #TMBS) was added and plates incubated in the dark at RT for 5 min. […] Absorbance at 450 nm was read on SpectaMax M5 Microplate reader.

[10] = tested on: SUDHL10 human lymphoma cells; assay type: in vivo; details: 28 days
Protocol: as §2, §3, §5
Several chemotherapeutica were used in parallel to Epizyme compounds. […]
as §4
Treatment efficacy was determined on the last treatment day. MTV(n), the median tumor volume for the number of animals, n, evaluable on the last day, was determined for each group. […] First, the difference between the MTV(n) of the designated control group and the MTV(n) of the drug-treated group is expressed as a percentage of the MTV(n) of the control group: […]

[11] = Compound 44 plasma concentration in WSU-DLCL2 tumor-bearing mice, LC-MS/MS; details: 225 mg/kg BID
Protocol: On several days during the study mice were sampled in a pre-specified fashion. Sampling included non-terminal bleeds (0.25 mL) from the mandibular vein without anesthesia and full volume blood collection via terminal cardiac puncture under CO2 anesthesia. Blood samples were processed for plasma, with K2-EDTA as anti-coagulant. The plasma samples were frozen at −80° C. and stored prior to bioanalysis of compound levels.
Plasma samples were obtained on day 28 at 5 minutes prior to the last dose (“trough”) and 3 hours after the last dose (“post”).

[12] = Compound 44 for 4 days, then Compound 44 plus agent for 4 days (FIG. 1A schedule)

## Nc1ccn([C@@H]2O[C@H](CO)[C@@H](O)[C@@H]2O)c(=O)n1 [AraC]
[1]
  combination benefit: no combination benefit; also recorded: No enhancement
[2]
  synergy characterization (Chou-Talalay): Synergism
[3]
  synergy characterization (Chou-Talalay): Synergism

## N.N.[Cl][Pt][Cl] [Cisplatin]
[1]
  combination benefit: no combination benefit; also recorded: No enhancement
[2]
  synergy characterization (Chou-Talalay): Synergism
[3]
  synergy characterization (Chou-Talalay): synergism

## CCN(c1cc(-c2ccc(CN3CCOCC3)cc2)cc(C(=O)NCc2c(C)cc(C)[nH]c2=O)c1C)C1CCOCC1 [Compound 44, N-((4,6-dimethyl-2-oxo-1,2-dihydropyridin-3-yl)methyl)-5-(ethyl (tetrahydro-2H-pyran-4-yl)amino)-4-methyl-4′-(morpholinomethyl)-[1,1′-biphenyl]-3-carboxamide]
[4]; single agent, increasing concentrations, WSU-DLCL2 (EZH2 Y641F)
  cell viability: decrease in cell viability; also recorded: reduction of cell growth
[5]
  cell viability: does not result in a reduction in cell viability
[6]
  cell viability: does not affect cell viability; also recorded: do not show sensitivity
[7]
  single agent efficacy: not observed
[8]; Compound 44 150 mg/kg TID
  % TGI from day 1: 73%
  % TGI from day 7: 86%
[8]; Compound 44 225 mg/kg BID
  % TGI from day 1: 71%
  % TGI from day 7: 80%
[8]; Compound 44 300 mg/kg BID
  % TGI from day 1: 57%
  % TGI from day 7: 67%
[8]; Compound 44 600 mg/kg QD
  % TGI from day 1: 58%
  % TGI from day 7: 70%
[9]; H3K27me3 normalized to total H3
  methylation of H3K27 in tumors, ELISA: inhibited
[9]; all dosages and dosing schedules
  methylation of H3K27 in tumors, Western blot: inhibited
[10]; Compound 44 125 mg/kg BID
  % TGI from day 7: 57%
[10]; Compound 44 250 mg/kg BID
  % TGI from day 7: 113%
[10]; Compound 44 500 mg/kg BID
  % TGI from day 7: 115%
[1]; Compound 44 alone
  sensitivity of cell viability: no sensitivity
[11]; day 28, 3 hours after the last dose
  Compound 44 plasma level, with CHOP vs single agent: significantly increased
[11]; day 28, trough (5 minutes prior to the last dose)
  Compound 44 plasma level, with CHOP vs single agent: not significantly different

## C[C@@H]1C[C@H]2[C@@H]3CCC4=CC(=O)C=C[C@]4(C)[C@@]3(F)[C@@H](O)C[C@]2(C)[C@@]1(O)C(=O)CO [Dexamethasone]
[2]
  enhancement of Compound 44 potency (fold IC50 shift): 17 fold
[3]
  enhancement of Compound 44 potency (fold IC50 shift): 3 fold

## COc1cccc2c1C(=O)c1c(O)c3c(c(O)c1C2=O)C[C@@](O)(C(=O)CO)C[C@@H]3O[C@H]1C[C@H](N)[C@H](O)[C@H](C)O1 [Doxorubicin]
[4]; [12]
  cell viability, combination with Compound 44: did not exhibit reduced cell viability
[1]
  combination benefit: no combination benefit; also recorded: No enhancement
[2]
  synergy characterization (Chou-Talalay): Synergism
[3]
  synergy characterization (Chou-Talalay): Synergism

## CO[C@H]1C[C@@H]2CC[C@@H](C)[C@@](O)(O2)C(=O)C(=O)N2CCCC[C@H]2C(=O)O[C@H]([C@H](C)C[C@@H]2CC[C@@H](OCCO)[C@H](OC)C2)CC(=O)[C@H](C)/C=C(\C)[C@@H](O)[C@@H](OC)C(=O)[C@H](C)C[C@H](C)/C=C/C=C/C=C/1C [Everolimus]
[1]
  combination benefit: no combination benefit; also recorded: No enhancement
[2]
  synergy characterization (Chou-Talalay): very strong synergism
[3]
  synergy characterization (Chou-Talalay): Strong synergism

## C[C@]12C=CC(=O)C=C1CC[C@@H]1[C@@H]2[C@@H](O)C[C@@]2(C)[C@H]1CC[C@]2(O)C(=O)CO [Prednisolone]
[4]; Compound 44 first, then agent alone (FIG. 1B schedule)
  cell viability, combination with Compound 44: additional reduction of cell viability
[4]; [12]
  cell viability, combination with Compound 44: synergistic reduction in cell viability; also recorded: additional reduction of cell growth; also recorded: reduced cell viability
[4]; agent first, then Compound 44 plus agent (FIG. 1C schedule)
  cell viability, combination with Compound 44: did not cause a synergistic effect on cell viability
[5]; FIG. 1A schedule
  cell viability, combination with Compound 44: synergistic effect
[5]
  cell viability: resistant
[6]; FIG. 1A schedule
  cell viability, combination with Compound 44: does not have an additional or synergistic effect on cell viability
[6]
  cell viability: show sensitivity
[1]
  combination benefit: no combination benefit; also recorded: No enhancement
[2]
  enhancement of Compound 44 potency (fold IC50 shift): 7 fold
[3]
  enhancement of Compound 44 potency (fold IC50 shift): 3 fold

## CC[C@]1(O)C[C@H]2CN(CCc3c([nH]c4ccccc34)[C@@](C(=O)OC)(c3cc4c(cc3OC)N(C=O)[C@H]3[C@@](O)(C(=O)OC)[C@H](OC(C)=O)[C@]5(CC)C=CCN6CC[C@]43[C@@H]65)C2)C1 [Vincristine]
[4]; [12]
  cell viability, combination with Compound 44: reduced cell viability at the highest concentration Compound 44
